Columns and labels:
[1] = system: HIV mutant strain (T97A/E138T/G140S/Q148H); test: Resistance evaluation test (HeLa-CD4 reporter), mutant strain T97A/E138T/G140S/Q148H; assay type: cell-based; details: FC=EC50 of mutant strain/EC50 of wild strain; HeLa-CD4 cells
Metabolic stability test = assay type: in vitro ADME, human; design: key: % remaining vs amount at 0 min (=100%); details: compound 0.5 μmol/L, human liver microsomes 0.5 mg protein/mL, NADPH, 37° C., 30 minutes; amount at 0 minutes defined as 100%
Procedure: Commercially available pooled human liver microsomes were reacted with the compound of the present invention for a certain time. A residual rate was calculated by the comparison between the reacted sample and an unreacted sample to evaluate the degree at which the compound of the present invention is metabolized in the liver. A reaction was performed (oxidative reaction) at 37° C. for 0 minutes or 30 minutes in the presence of 1 mmol/L NADPH in 0.2 mL of a buffer (50 mmol/L Tris-HCl pH 7.4, 150 mmol/L potassium chloride, 10 mmol/L magnesium chloride) containing 0.5 mg protein/mL of human liver microsomes. After the reaction, 50 μL of the reaction solution was added to 100 μL of a solution of methanol/acetonitrile=1/1 (v/v) and mixed, and the mixture was centrifuged at 3000 rpm for 15 minutes. The compound of the present invention in the centrifugation supernatant was quantified by LC/MS/MS or solid-phase extraction (SPE)/MS. The amount of the compound of the present invention remaining after the reaction was calculated with the amount of the compound at 0 minutes of the reaction defined as 100%.

[2] = Clearance evaluation test; assay type: in vivo; details: rat, plasma, 1 umol/kg, rats, intravenous 1 μmol/kg
From the text: Experimental Material and Method (1) Animals used: rats were used. (2) Rearing conditions: the rats were allowed to freely take solid feed and sterilized tap water. (3) Dose and grouping setting: a predetermined dose was intravenously administered. Groups were set as follows: Intravenous administration: 1 μmol/kg (n=2) (4) Preparation of dosing solution: the test sample was solubilized using a solvent of dimethyl sulfoxide/propylene glycol=1/1 and administered. (5) Administration method: the test sample was administered to the tail vein through a syringe with an injection needle. (6) Evaluation item: blood was collected over time, and the concentration of the compound of the present invention in plasma was measured using LC/MS/MS. (7) Statistical analysis: total body clearance (CLtot) and elimination half-life (t½) were calculated as to change in the concentration of the compound of the present invention in plasma by the moment analysis method.

[3] = system: HIV mutant strain 1 (E138K/G140S/Q148H/N155H); test: Resistance evaluation test (HeLa-CD4 reporter), mutant strain 1; assay type: cell-based; details: FC=EC50 of mutant strain/EC50 of wild strain, HeLa-CD4 cells
Procedure: (§1) Serial dilutions of a test sample were prepared in a96-well microplate (50 μL/well). 2.5×10^5 cells/mL of a HeLa-CD4 cell suspension was dispensed at 100 μL/well to the plate containing the test sample. Then, an HIV virus solution (wild strain and mutant strain) was dispensed at 50 μL/well. The plate was mixed with a plate mixer and cultured for 3 days in a CO2 incubator. The culture supernatant in each well was removed by suction. A cell lysis buffer in a reporter assay kit was dispensed at 100 μL/well, and the plate was frozen in a freezer (−80° C.). The plate frozen in a freezer was thawed at room temperature, then mixed with a plate mixer, and centrifuged at 1,200 rpm for 5 minutes. The supernatant of each well was dispensed at 20 μL/well to a 96-well microplate (BLACK). A chemiluminescent reagent in the reporter assay kit was dispensed at 100 μL/well and reacted at room temperature for approximately 1 hour. Then, luminescence intensity was measured using MicroBeta TRILUX. […] FC=EC50 of mutant strain/EC50 of wild strain (Results) FC for the mutant strain 1 (E138K/G140S/Q148H/N155H) and FC for the mutant strain 2 (E92Q/E138T/G140S/Q148H) are shown in the table.

[4] = system: HIV mutant strain 3 (E92Q/E138K/G140S/Q148H); test: Resistance evaluation test (HeLa-CD4 reporter), mutant strain 3; assay type: cell-based; details: FC=EC50 of mutant strain/EC50 of wild strain, HeLa-CD4 cells
Procedure: as §1

[5] = molecular target: Voltage gated sodium channel (Nav 1.5 channel) (Homo sapiens, UniProt Q14524); details: pH 7.4
From the text: For the purpose of assessing risk of arrhythmogenesis of the compound of the present invention, effects of the compound of the present invention on Na^+ current (INa), which plays an important role in the depolarization process of myocardium, was studied using HEK cells expressing Voltage gated sodium channel (Nav 1.5 channel) encoded by SCN5A gene. A cell is retained at a membrane potential of −100 mV by the whole cell patch clamp method using an automated patch clamp system (QPatch; Sophion Bioscience A/S), then INa induced by depolarization stimulation at −10 mV for 20 milliseconds, was recorded. […] From the obtained INa, an absolute value of the maximum peak current was measured based on the current value at the resting membrane potential using analysis software (QPatch Assay software; Sophion Bioscience A/S). The maximum peak current at the time of the application of the compound of the present invention with respect to the maximum peak current at the time of the application of the vehicle was further calculated to evaluate the influence of the compound of the present invention on INa.

[6] = system: HIV mutant strain 2 (E92Q/E138T/G140S/Q148H); test: Resistance evaluation test (HeLa-CD4 reporter), mutant strain 2; assay type: cell-based; details: FC=EC50 of mutant strain/EC50 of wild strain, HeLa-CD4 cells
Procedure: as §1

HIV = test: Anti-HIV activity (MT-4 cells, MTT); assay type: cell-based; details: Human immunodeficiency virus 1, MT4, 96 h, cultured 4 days
In short: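 MT-4 cells (2.5×10^5 cells/mL) mixed with serial dilutions of test sample and HIV, cultured 4 days in CO2 incubator. MTT added for 1 h, cells lysed, absorbance read at 560 nm and 690 nm.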

Chain of Voltage gated sodium channel (Nav 1.5 channel) (Q14524 whole entry): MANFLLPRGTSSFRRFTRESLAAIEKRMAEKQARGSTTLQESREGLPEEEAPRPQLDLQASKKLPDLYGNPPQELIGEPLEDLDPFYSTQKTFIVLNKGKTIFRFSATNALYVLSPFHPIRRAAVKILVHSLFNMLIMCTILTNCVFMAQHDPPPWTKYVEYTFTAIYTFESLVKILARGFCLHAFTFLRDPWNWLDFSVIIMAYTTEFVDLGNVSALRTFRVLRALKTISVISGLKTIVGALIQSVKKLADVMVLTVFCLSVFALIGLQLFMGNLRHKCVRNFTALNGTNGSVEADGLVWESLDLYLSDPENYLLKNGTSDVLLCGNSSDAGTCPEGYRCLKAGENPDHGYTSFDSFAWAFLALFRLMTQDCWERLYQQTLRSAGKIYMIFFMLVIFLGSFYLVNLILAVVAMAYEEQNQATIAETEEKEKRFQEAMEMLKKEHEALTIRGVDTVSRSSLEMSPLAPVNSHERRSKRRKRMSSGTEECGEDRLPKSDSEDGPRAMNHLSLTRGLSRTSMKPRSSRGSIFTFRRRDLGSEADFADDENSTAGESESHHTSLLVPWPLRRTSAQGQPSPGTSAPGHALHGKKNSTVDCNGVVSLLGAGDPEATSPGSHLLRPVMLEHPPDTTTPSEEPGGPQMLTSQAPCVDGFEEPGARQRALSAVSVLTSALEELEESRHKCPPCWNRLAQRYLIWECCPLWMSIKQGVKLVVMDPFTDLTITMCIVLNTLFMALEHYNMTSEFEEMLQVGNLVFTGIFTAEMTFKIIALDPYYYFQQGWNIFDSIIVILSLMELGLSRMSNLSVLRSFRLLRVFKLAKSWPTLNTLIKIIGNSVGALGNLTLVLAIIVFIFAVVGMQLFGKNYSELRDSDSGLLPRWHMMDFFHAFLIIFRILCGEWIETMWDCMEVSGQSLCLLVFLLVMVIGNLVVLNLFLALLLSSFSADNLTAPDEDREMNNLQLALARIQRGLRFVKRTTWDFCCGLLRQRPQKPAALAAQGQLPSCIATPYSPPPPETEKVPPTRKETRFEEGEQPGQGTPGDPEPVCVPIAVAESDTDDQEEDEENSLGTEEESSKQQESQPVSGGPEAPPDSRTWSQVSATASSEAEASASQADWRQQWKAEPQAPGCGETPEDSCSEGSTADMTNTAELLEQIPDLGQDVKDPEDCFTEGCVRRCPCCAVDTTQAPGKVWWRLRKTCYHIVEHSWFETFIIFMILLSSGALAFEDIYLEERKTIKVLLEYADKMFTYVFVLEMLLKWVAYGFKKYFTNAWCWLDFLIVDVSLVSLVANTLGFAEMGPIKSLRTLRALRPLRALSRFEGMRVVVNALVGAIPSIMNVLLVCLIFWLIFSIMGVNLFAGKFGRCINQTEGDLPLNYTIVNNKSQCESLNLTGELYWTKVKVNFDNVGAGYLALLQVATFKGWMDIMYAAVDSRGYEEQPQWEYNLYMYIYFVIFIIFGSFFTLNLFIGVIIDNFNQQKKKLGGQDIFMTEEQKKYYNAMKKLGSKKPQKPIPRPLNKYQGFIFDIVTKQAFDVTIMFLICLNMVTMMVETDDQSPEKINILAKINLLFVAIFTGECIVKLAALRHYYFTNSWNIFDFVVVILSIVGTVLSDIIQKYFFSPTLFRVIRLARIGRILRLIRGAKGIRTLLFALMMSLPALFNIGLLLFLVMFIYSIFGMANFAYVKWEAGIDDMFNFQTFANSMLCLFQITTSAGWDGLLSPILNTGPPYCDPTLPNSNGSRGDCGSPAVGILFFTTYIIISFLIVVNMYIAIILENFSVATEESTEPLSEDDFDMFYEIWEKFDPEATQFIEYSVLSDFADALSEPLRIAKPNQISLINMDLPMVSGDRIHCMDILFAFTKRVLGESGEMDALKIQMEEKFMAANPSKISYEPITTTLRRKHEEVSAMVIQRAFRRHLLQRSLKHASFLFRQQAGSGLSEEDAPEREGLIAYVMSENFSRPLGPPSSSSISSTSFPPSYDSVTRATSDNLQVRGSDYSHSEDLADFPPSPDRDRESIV

CN1C(=O)c2c(O)c(=O)c(C(=O)NCc3ccc(F)cc3F)cn2N2CCCC[C@@H]12 [Compound I-015]
FC for the mutant strain (T97A/E138T/G140S/Q148H) [1]: 10 | residual rate (Metabolic stability test): 103 | half-life ([2]; read-out: elimination half-life (t½) (converted)): 738 min | clearance ([2]; read-out: total body clearance (CLtot)): 0.111 mL/min/kg | FC mutant strain 1 [3]: 51 | FC for the mutant strain 3 [4]: 7.7 | maximum peak current (INa) with compound with respect to vehicle [5]: 92.1% | FC mutant strain 2 [6]: 18 | EC50 (HIV): 3.6 nM
